Data reported in ChEMBL document CHEMBL1201862, “PubChem BioAssay data set” (2004).
The source made the active and inactive calls.

Experiments:
SUMO-activating enzyme = SUMO-activating enzyme (Homo sapiens, UniProt Q9UBT2); assay: SUMOylation inhibitor hit validation, confirmation, SUMOylation inhibitor project, biochemical, AlphaScreen (AID 2018); type: functional
Cytochrome P450 2C9 = Cytochrome P450 2C9 (Homo sapiens, UniProt P11712)
Cytochrome P450 2D6 = Cytochrome P450 2D6 (Homo sapiens, UniProt P10635);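 also: CYP2D6 member of a cytochrome P450 panel assay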
Cytochrome P450 2C19 = Cytochrome P450 2C19 (Homo sapiens, UniProt P33261); assay: Cytochrome panel assay with activity outcomes. Panel member name: p450-cyp2c19 Compounds with AC50 equal or less than 10 uM are considered active; type: functional
Cytochrome P450 1A2 = molecular target: T1, Cytochrome P450 1A2 (Homo sapiens, UniProt P05177);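 also: PubChem cytochrome P450 panel assay, CYP1A2 panel member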
T1 sequence (P05177 whole entry): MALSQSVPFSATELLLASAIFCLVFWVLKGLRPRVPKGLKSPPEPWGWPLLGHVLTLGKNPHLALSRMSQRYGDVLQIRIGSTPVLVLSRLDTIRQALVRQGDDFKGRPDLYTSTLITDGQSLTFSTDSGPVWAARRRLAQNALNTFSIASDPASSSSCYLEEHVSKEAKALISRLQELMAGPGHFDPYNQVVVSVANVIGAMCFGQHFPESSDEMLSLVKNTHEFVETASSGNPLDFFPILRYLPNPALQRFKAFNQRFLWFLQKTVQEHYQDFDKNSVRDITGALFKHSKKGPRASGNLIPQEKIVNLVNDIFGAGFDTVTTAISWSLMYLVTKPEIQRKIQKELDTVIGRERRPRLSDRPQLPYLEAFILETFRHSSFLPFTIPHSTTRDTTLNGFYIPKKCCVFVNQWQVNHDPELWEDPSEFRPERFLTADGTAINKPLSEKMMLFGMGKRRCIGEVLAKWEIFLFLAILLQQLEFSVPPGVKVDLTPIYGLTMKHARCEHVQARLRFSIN

BJ [1] = assay: cells; type: functional, cell-based; details: Homo sapiens
BJ [2] = assay: cytotoxicity toward BJ-TERT fibroblasts, dose response, cell-based, RAS-independent, luminescence (AID 1933); type: functional; details: Homo sapiens
[3] = cytotoxicity toward DRD oncogenic fibroblasts, dose response, cell-based, non-viral oncogenic, luminescence (AID 1934); type: functional; details: Homo sapiens
[4] = cytotoxicity in HEK-293T cells, dose response, cytotoxicity control for TCR NF-kB inhibitor project, luminescence, T-cell screen hits (AID 489026); type: functional, cell-based;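 also: cells exposed to compound about 14 hours before the viability readout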
[5] = molecular target: T2, DNA repair and recombination protein RAD54-like (Homo sapiens, UniProt Q92698); assay: inhibitors of human RAD54 branch migration, confirmation, biochemical, fluorescence, cherry-picked samples, dose series (AID 651657); type: functional
T2 sequence (Q92698 whole entry): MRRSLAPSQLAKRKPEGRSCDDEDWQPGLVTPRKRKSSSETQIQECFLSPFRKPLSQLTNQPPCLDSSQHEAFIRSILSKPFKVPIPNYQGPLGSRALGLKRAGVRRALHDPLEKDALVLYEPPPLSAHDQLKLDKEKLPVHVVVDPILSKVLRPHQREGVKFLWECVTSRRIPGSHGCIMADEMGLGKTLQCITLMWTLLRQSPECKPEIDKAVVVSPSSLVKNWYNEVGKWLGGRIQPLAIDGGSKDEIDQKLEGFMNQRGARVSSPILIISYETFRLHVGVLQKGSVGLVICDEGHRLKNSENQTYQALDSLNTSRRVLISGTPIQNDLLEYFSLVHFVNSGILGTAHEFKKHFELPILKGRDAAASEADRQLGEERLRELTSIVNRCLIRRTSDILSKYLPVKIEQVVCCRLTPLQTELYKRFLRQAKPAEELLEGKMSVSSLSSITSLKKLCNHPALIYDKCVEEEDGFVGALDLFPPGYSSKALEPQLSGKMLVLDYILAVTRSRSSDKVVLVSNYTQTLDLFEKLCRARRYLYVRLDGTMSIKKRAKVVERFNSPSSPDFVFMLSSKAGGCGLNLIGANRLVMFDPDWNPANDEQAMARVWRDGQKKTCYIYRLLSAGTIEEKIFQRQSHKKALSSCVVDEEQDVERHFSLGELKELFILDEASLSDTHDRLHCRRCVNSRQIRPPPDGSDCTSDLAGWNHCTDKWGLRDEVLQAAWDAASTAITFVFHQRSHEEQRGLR

H4 = assay: Luminescence Cell-Based Dose Response HTS to Identify Activators of 5'UTR Stem-Loop Driven Prion Protein mRNA Translation in H4 Neuroglioblastoma Cells. [Related pubchem assays: 1829 (Project Summary), 1814 (Primary HTS)]; type: functional; details: Homo sapiens
[6] = molecular target: Dual specificity tyrosine-phosphorylation-regulated kinase 1A (Rattus norvegicus, UniProt Q63470); type: biochemical, Homo sapiens
[7] = Luminescence Cell-Based Dose Confirmation HTS to Identify Activators of 5'UTR Stem-Loop Driven Alpha-Synuclein mRNA Translation in H4 Neuroglioblastoma Cells. [Related pubchem assays: 1829 (Project Summary), 1814 (Primary HTS)]; type: functional
[8] = Luminescence Cell-Based Dose Response HTS to Identify Activators of Luciferase Translation or Activity in H4 […] Cells. [Related pubchem assays: 1829 (Project Summary), 1814 (Primary HTS)]; type: functional
Vero = assay: cells; type: functional; details: Chlorocebus sabaeus
Protein RecA = molecular target: T3, Protein RecA (Mycobacterium tuberculosis, UniProt P9WHJ3); assay: Fluorescence Cell-Free Homogeneous Dose Retest to Identify Inhibitors of RecA-Intein Splicing Activity. [Related pubchem assays (depositor defined):AID2097, AID2223, AID489010, AID492950]; type: functional
T3 sequence (P9WHJ3 whole entry): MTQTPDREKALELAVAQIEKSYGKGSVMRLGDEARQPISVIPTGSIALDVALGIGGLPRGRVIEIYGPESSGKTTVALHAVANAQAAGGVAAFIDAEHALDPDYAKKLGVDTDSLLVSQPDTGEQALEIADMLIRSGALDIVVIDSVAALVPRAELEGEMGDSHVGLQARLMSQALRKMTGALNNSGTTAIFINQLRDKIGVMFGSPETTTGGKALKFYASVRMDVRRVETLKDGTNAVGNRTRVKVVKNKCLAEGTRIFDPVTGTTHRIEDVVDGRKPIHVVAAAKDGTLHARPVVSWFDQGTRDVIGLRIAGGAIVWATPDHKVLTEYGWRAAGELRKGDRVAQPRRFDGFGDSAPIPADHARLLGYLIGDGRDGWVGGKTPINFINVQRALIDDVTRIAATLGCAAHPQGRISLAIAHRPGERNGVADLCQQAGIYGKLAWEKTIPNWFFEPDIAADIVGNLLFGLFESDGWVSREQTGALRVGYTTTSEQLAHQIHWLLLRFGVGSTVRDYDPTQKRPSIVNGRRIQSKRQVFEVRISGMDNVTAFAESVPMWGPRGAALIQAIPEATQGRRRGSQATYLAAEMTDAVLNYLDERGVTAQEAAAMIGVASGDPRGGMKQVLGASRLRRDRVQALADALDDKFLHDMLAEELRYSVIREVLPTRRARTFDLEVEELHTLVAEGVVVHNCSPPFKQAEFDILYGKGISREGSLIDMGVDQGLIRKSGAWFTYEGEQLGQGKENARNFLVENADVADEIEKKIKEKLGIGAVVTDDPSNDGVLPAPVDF

[9] = test system: Streptococcus sp. 'group A'; assay: growth inhibition of control SK(-) GAS strain, dose response, counter-screen for streptokinase expression inhibitor project, luminescence, kanamycin, BacTiterGlo, confirmation (AID 1900); type: functional, organism-based
Streptococcus = assay: Group A Streptococcus viability loss, dose response, counter-screen for streptokinase expression inhibitor project, luminescence, BacTiterGlo (AID 1915); type: functional, organism-based;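 also: potency for reduction of bacterial viability or growth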
[10] = molecular target: T4, Replicative DNA helicase DnaB (Mycobacterium tuberculosis, UniProt P9WMR3); assay: DnaB intein splicing inhibitors, dose response, biochemical, cell-free fluorescence (AID 449749); type: functional
T4 sequence (P9WMR3 whole entry): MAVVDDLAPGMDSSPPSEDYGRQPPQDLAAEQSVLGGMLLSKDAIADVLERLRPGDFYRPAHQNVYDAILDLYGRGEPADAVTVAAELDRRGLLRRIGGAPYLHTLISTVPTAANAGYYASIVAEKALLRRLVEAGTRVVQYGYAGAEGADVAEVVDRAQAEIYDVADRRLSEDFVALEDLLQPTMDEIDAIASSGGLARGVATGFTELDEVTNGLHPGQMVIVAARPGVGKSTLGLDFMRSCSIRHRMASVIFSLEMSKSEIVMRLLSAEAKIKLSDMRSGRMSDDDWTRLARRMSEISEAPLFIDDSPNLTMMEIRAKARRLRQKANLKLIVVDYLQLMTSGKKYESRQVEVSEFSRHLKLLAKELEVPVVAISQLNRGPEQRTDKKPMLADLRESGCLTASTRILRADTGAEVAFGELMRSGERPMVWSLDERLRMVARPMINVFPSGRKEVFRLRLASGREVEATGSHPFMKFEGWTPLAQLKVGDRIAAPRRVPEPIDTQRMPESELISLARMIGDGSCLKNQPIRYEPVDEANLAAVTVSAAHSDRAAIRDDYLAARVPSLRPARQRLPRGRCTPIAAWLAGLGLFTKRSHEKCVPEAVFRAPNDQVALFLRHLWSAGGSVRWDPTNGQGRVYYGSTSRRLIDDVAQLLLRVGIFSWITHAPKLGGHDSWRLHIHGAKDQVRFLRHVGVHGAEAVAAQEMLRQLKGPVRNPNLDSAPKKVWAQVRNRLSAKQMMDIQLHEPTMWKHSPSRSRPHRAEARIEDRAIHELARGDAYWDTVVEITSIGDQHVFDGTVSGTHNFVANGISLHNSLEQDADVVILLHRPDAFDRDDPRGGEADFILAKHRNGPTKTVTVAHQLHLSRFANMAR

Nonstructural protein 1 = Nonstructural protein 1 (Influenza A virus, UniProt Q194T2); type: functional, Influenza A virus (A/California/07/2009(H1N1))
Nonstructural protein 1, sequence (Q194T2 whole entry): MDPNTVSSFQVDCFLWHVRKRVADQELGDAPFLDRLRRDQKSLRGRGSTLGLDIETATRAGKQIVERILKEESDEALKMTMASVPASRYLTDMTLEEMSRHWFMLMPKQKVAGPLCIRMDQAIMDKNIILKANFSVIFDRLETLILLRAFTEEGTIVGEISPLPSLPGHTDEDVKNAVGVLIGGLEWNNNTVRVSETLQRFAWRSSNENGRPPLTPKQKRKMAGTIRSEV

SUMO-activating enzyme, sequence (Q9UBE0 whole entry): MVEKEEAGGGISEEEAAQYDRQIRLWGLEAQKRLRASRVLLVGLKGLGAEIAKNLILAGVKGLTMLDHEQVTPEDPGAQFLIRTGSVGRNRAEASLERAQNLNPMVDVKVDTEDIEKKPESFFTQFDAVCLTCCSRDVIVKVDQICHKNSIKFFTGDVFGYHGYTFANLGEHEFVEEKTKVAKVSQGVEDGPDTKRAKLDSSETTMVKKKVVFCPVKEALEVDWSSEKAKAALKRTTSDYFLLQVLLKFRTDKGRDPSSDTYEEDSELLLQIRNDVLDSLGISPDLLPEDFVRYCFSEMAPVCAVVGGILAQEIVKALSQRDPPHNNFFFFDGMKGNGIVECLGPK
SUMO-activating enzyme, sequence (Q9UBT2 whole entry): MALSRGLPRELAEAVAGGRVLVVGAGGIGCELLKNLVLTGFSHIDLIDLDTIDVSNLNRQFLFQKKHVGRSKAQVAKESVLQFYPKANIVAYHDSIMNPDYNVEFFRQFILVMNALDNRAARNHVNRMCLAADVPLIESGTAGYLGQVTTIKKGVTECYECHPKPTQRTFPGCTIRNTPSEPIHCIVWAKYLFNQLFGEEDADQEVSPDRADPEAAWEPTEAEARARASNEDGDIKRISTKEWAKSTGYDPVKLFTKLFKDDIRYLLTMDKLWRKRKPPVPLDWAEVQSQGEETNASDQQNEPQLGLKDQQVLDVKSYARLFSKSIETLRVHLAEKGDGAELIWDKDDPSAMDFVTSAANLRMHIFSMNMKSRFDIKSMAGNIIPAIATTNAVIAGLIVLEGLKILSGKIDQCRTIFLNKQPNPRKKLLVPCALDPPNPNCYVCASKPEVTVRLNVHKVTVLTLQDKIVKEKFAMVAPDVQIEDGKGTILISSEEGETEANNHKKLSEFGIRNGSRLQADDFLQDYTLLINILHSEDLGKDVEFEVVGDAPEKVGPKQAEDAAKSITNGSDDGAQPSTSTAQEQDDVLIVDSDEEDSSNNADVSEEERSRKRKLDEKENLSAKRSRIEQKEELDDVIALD
Cytochrome P450 2C19, sequence (P33261 whole entry): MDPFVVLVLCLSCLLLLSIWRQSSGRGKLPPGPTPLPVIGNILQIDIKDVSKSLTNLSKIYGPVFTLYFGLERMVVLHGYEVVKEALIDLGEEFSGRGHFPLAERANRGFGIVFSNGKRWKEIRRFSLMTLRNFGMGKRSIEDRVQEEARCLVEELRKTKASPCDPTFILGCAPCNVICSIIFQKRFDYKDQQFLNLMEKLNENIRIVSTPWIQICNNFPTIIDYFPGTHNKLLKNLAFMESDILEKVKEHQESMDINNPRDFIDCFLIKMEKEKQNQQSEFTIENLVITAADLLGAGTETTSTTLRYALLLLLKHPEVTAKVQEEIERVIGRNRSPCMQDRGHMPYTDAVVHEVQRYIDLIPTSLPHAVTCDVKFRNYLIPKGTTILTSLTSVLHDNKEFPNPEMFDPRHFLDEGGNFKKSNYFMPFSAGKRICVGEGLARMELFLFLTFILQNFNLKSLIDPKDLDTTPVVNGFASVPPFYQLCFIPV
Cytochrome P450 2D6, sequence (P10635 whole entry): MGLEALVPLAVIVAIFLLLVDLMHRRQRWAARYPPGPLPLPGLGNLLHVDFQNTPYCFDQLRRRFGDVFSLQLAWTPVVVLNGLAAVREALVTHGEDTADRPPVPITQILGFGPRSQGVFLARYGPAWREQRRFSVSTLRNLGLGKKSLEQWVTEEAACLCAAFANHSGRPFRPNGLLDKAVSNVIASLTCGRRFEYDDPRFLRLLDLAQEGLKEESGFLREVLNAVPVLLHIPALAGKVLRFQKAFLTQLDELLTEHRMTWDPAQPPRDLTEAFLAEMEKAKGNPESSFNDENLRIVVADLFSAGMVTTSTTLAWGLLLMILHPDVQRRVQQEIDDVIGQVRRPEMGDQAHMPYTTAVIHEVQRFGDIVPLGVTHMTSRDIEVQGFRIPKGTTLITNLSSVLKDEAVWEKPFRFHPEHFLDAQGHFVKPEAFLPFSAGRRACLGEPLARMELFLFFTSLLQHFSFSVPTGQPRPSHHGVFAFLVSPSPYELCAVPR
Cytochrome P450 2C9, sequence (P11712 whole entry): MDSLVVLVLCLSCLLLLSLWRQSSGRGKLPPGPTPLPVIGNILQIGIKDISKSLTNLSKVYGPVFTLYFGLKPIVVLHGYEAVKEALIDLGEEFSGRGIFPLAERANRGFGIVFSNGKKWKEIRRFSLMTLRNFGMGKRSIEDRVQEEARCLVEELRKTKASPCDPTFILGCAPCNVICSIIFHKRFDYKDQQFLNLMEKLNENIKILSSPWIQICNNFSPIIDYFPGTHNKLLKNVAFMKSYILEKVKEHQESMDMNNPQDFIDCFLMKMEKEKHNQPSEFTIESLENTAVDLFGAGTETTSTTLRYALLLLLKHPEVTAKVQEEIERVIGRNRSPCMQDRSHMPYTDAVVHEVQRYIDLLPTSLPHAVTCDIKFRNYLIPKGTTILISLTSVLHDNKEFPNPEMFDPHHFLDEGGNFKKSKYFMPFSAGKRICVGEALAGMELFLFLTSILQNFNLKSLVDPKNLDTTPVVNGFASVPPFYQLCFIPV

Which IC50 (SUMO-activating enzyme) does the source give for `Cc1nn(-c2ccccc2)c2sc(C(=O)NNC(=O)COc3ccccc3)cc12` here?
The IC50 was 33.6 µM (active).

Which AC50 (Cytochrome P450 2C9) does the source give for `CC(C)(C)c1ccc(OC(=O)Cn2c(C(F)(F)F)nc3ccccc32)cc1` here?
Its AC50 is 0.891 µM (inconclusive).

And the AC50 (Cytochrome P450 2D6)?
Its AC50 is “inconclusive”.

What about the AC50 (Cytochrome P450 2C19) of the same molecule?
The AC50 was “inconclusive”.

With `CN(C)c1ncnc2c1ncn2CCn1cnc2c(N(C)C)ncnc21` as the molecule, how does the AC50 (Cytochrome P450 1A2) read?
Its AC50 is 6.31 µM (inconclusive).

What about the AC50 (Cytochrome P450 2D6) of the same molecule?
Its AC50 is “inconclusive”.

Which EC50 (BJ [1]) does the source give for `COc1cc(-c2noc(C)c2-c2ccc(N(C)C)nc2)cc(OC)c1OC` here?
The EC50 was 15.7 µM (inconclusive).

What about the EC50 (BJ [2]) of the same molecule?
The EC50 was 0.174 µM (active).

And the EC50 [3]?
Its EC50 is 4.06 µM (inconclusive).

And the IC50 [4]?
The IC50 was > 80 µM (inactive).

Which AC50 [5] does the source give for `CCNCCNC(=O)c1c(O)c2cccc3c2n(c1=O)CCC3` here?
The AC50 was 86.3 µM (active).

Which EC50 (H4) does the source give for `CCc1ccc2nc(NC(=O)C3CSC4(C)CCC(=O)N34)sc2c1` (stereo not drawn) here?
Its EC50 is 6.99 µM (active).

And the AC50 [6]?
Its AC50 is 7.62 µM (active).

And the EC50 [7]?
The EC50 was > 120 µM (not active).

What about the EC50 [8] of the same molecule?
The EC50 was 19.6 µM (active).

With `CN(C)CCNC(=O)c1cc2c(=O)n(C)c3ccccc3c2n1C` as the molecule, how does the AC50 [5] read?
Its AC50 is 16.2 µM (active).

For `O=C(O)c1cc2ccccc2c(S(=O)(=O)O)c1O`, which AC50 (Cytochrome P450 2D6) is on record?
Its AC50 is “inconclusive”.

With `Cc1ccc(C(=O)Nc2sc3c(c2C(=O)NCc2ccco2)CCCC3)cc1` as the molecule, how does the IC50 (SUMO-activating enzyme) read?
Its IC50 is 29.9 µM (active).

Which AC50 [6] does the source give for `CC1CCC(C(C)C)C2=C1C(C#N)(C#N)C(C#N)(C#N)C(c1ccccc1)N2` (stereo not drawn) here?
The AC50 was 5.69 µM (active).

What about the CC50 (Vero) of the same molecule?
The CC50 was 16.7 µM (active).

With `COc1cc2cc(c1Cl)N(C)C(=O)C[C@H](OC(=O)C(C)C)[C@]1(C)O[C@@H]1[C@@H](C)[C@H]1C[C@](O)(NC(=O)O1)[C@@H](OC)/C=C\C=C(\C)C2` as the molecule, how does the AC50 (Cytochrome P450 2D6) read?
The AC50 was “inconclusive”.

What about the AC50 (Cytochrome P450 2C19) of the same molecule?
The AC50 was “inconclusive”.

Which results are given for `O=C(NC(=S)NNC(=O)c1ccccc1O)c1ccco1`?
EC50 (Protein RecA): 114 µM (inconclusive); EC50 [9]: 3.27 µM (active); EC50 (Streptococcus): 7.67 µM (active); AC50 [10]: 95.2 µM (active); IC50 (Nonstructural protein 1): 8.7 µM (active)

For `O=c1c(O[C@@H]2O[C@H](CO)C(O)C2O)c(-c2ccc(O)c(O)c2)oc2cc(O)cc(O)c12` (stereo partly drawn), which AC50 [6] is on record?
The AC50 was 18 µM (active).

With `O=C(N/N=C\c1cn[nH]c1-c1ccc(Cl)cc1)c1cccs1` as the molecule, how does the IC50 (SUMO-activating enzyme) read?
Its IC50 is > 100 µM (inactive).

Which AC50 (Cytochrome P450 2C9) does the source give for `COc1ccc(/C=N/N(C(C)=O)c2nc(-c3ccc(C)cc3)cs2)cc1` here?
The AC50 was 3.16 µM (inconclusive).

What about the AC50 (Cytochrome P450 2D6) of the same molecule?
The AC50 was “inconclusive”.

What about the AC50 (Cytochrome P450 2C19; read-out: AC50) of the same molecule?
The AC50 was 0.447 µM (inconclusive).

For `O=C(Nc1ccc2ccccc2n1)c1ccccc1`, which AC50 [6] is on record?
Its AC50 is 77.5 µM (active).
